Experiments:
Experiment in all cases: Greenhouse herbicidal post-emergence test
SETFA = format: in vivo, giant foxtail
Source text: (§1) The culture containers used were plastic pots containing loamy sand with approximately 3.0% of humus as the substrate. The seeds of the test plants were sown separately for each species. For the post-emergence treatment, the test plants were first grown to a height of 3 to 15 cm, depending on the plant form, and only then treated with the active compounds which had been suspended or emulsified in water. For this purpose, the test plants were either sown directly and grown in the same containers, or they were first grown separately as seedlings and transplanted into the test containers a few days prior to treatment. […] Depending on the species, the plants were kept at 10-25° C. or 20-35° C. The test period extended over 2 to 4 weeks. During this time, the plants were tended, and their response to the individual treatments was evaluated. The evaluation was carried out using a scale from 0 to 100. 100 means no emergence of the plants, or complete destruction of at least the above-ground parts, and 0 means no damage, or normal course of growth. The plants used in the greenhouse experiments were composed of the following species: [table]

BRAPL = format: in vivo, marmalade grass
Source text: as §1

CHEAL = format: in vivo, lamb's-quarters; conditions: application rate 31.3 g/ha
Source text: (§2) The culture containers used were plastic pots containing loamy sand with approximately 3.0% of humus as the substrate. The seeds of the test plants were sown separately for each species. For the post-emergence treatment, the test plants were first grown to a height of 3 to 15 cm, depending on the plant form, and only then treated with the active compounds which had been suspended or emulsified in water. For this purpose, the test plants were either sown directly and grown in the same containers, or they were first grown separately as seedlings and transplanted into the test containers a few days prior to treatment. The application rate for the post-emergence treatment was 31.3 g of a.s./ha. Depending on the species, the plants were kept at 10-25° C. or 20-35° C. The test period extended over 2 to 4 weeks. During this time, the plants were tended, and their response to the individual treatments was evaluated. The evaluation was carried out using a scale from 0 to 100. 100 means no emergence of the plants, or complete destruction of at least the above-ground parts, and 0 means no damage, or normal course of growth. The plants used in the greenhouse experiments were composed of the following species: [table]

AMARE = format: in vivo, velvet leaf; conditions: application rate 31.3 g/ha
Source text: as §2

SMILES: Cn1nc(-c2c(F)cc(Cl)c(N)c2Br)c(Cl)c1OC(F)F [IVa.1, 2-bromo-4-fluoro-6-chloro-3-(4-chloro-5-difluoromethoxy-1-methyl-1H-pyrazol-3-yl)aniline]
- herbicidal post-emergence activity against SETFA (SETFA; application rate 15.6 g/ha): very good to good
- herbicidal post-emergence activity against SETFA (SETFA; application rate 31.3 g/ha): very good
- herbicidal post-emergence activity against BRAPL (BRAPL; application rate 15.6 g/ha): very good
- herbicidal post-emergence activity against BRAPL (BRAPL; application rate 31.3 g/ha): very good
- herbicidal post-emergence activity against CHEAL (CHEAL): very good
- herbicidal post-emergence activity against AMARE (AMARE): very good
